# Laboratory results as given in patent US20240308960A1 (Sumitomo Pharma Co., Ltd., priority 2021, published 2024).
# Biological target: T1, Human orexin receptor type 2 (Homo sapiens, UniProt O43614)
# T1 sequence (O43614 1-444): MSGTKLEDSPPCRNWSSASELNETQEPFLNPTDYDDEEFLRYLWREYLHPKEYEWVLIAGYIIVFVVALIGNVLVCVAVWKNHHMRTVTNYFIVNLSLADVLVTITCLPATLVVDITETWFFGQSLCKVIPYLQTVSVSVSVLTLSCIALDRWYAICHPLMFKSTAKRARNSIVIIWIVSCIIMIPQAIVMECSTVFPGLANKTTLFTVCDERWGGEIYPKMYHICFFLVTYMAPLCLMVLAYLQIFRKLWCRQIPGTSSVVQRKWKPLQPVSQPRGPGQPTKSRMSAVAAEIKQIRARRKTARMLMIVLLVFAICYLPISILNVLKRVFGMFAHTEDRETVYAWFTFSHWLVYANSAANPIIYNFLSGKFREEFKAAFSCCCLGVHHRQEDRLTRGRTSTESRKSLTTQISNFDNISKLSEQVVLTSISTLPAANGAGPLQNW
# Test: Test Example 1: agonist activity for orexin receptor type 2 (aequorin luminescence, intracellular calcium mobilization)
# Conditions: compound 10 μm; CHO cells transiently expressing human orexin receptor type 2 and apoaequorin; relative percentage of luminescence for the luminescence (100%) of Orexin A (100 μM)
# Procedure: Human orexin receptor type 2 and apoaequorin were transiently expressed in CHO cells, and the agonist activity was evaluated based on intracellular calcium mobilization with ligand stimulation. The CHO cells transiently-expressed human orexin receptor type 2 and apoaequorin were seeded on a 384-well plate by 2,000 cells/well, and then incubated for 16-22 hours. After the plate was returned to room temperature, Coelenterazine hcp (final concentration: 1 μM) was added to the plate, and the plate was allowed to stand at room temperature for 2 hours. And then, Orexin A or each test compound was added to the plate, and the luminescence of the cells was measured with FDSS7000 (Hamamatsu Photonics K. K.), wherein Orexin A and each test compound were dissolved in DMSO (final concentration: 0.1%), and diluted with a buffer (Hanks, 20 mM HEPES, 0.1% BSA). The agonist activity of each test compound for orexin receptor type 2 was calculated as relative percentage of luminescence for the luminescence (100%) of Orexin A (100 μM).
row,Structure (SMILES),Agonist Activity (%)
1,"CCc1nc(C2(C)CCN(C(=O)Nc3c(Cl)cccc3N3CCN(C(C)C)CC3)CC2)no1 [Example 83, N-{2-chloro-6-[4-(propan-2-yl)piperazin-1-yl]phenyl}-4-(5-ethyl-1,2,4-oxadiazol-3-yl)-4-methylpiperidine-1-carboxamide]",146
2,"Cc1ccc(C2CCN(C(=O)Nc3c(N4CCN(C(C)C)CC4)cccc3C(F)(F)F)CC2)cc1 [Example 34, 4-(4-methylphenyl)-N-{2-[4-(propan-2-yl)piperazin-1-yl]-6-(trifluoromethyl)phenyl}piperidine-1-carboxamide]",161
3,"Cc1ccc(C23CCN(C(=O)Nc4ccccc4N4CCN(C(C)C)CC4)CC2C3)cc1 (centres unmarked) [Example 14, 6-(4-methylphenyl)-N-{2-[4-(propan-2-yl)piperazin-1-yl]phenyl}-3-azabicyclo[4.1.0]heptane-3-carboxamide]",126
4,"COc1cccc(N2CCN(C(C)C)CC2)c1NC(=O)N1CCC(c2ccc(OC(F)(F)F)cc2)CC1 [Example 16, N-{2-methoxy-6-[4-(propan-2-yl)piperazin-1-yl]phenyl}-4-[4-(trifluoromethoxy)phenyl]piperidine-1-carboxamide]",82
5,"Cc1ccc(C2CCN(C(=O)Nc3c(F)cccc3C3CCN(C(C)CF)CC3)CC2)cc1 (centres unmarked) [Example 137, N-{2-fluoro-6-[1-(1-fluoropropan-2-yl)piperidin-4-yl]phenyl}-4-(4-methylphenyl)piperidine-1-carboxamide]",126
6,"Cc1noc(C2(C)CCN(C(=O)Nc3ccccc3N3CCN(C(C)C)CC3)CC2)n1 [Example 162, 4-Methyl-4-(3-methyl-1,2,4-oxadiazol-5-yl)-N-{2-[4-(propan-2-yl)piperazin-1-yl]phenyl}piperidine-1-carboxamide]",100
7,"Cc1ccc(C2CCN(C(=O)Nc3c(F)cccc3-c3cnn(C4CC4)c3)CC2)cc1 [Example 58, N-[2-(1-cyclopropyl-1H-pyrazol-4-yl)-6-fluoro-phenyl]-4-(4-methylphenyl)piperidine-1-carboxamide]",71
8,"Cc1ccc(-c2cccc(F)c2NC(=O)N2CCC(C)(c3cc(C4CC4)on3)CC2)cn1 [Example 68, 4-(5-cyclopropyl-1,2-oxazol-3-yl)-N-[2-fluoro-6-(6-methylpyridin-3-yl)phenyl]-4-methylpiperidine-1-carboxamide]",68
9,"CC(C)N1CCN(c2cccc(Cl)c2NC(=O)N2CCC(C)(c3noc(C4CC4(F)F)n3)CC2)CC1 (centres unmarked) [Example 114, N-{2-chloro-6-[4-(propan-2-yl)piperazin-1-yl]phenyl}-4-[5-(2,2-difluorocyclopropyl)-1,2,4-oxadiazol-3-yl]-4-methylpiperidine-1-carboxamide]",155
10,"CC(C)N1CCN(c2cccc(Cl)c2NC(=O)N2CCC(C)(c3nnc(C4CC4)s3)CC2)CC1 [Example 102, N-{2-chloro-6-[4-(propan-2-yl)piperazin-1-yl]phenyl}-4-(5-cyclopropyl-1,3,4-thiadiazol-2-yl)-4-methylpiperidine-1-carboxamide]",160
11,"CC(C)N1C[C@H]2C[C@@H]1CN2c1cccc(F)c1NC(=O)N1CCC(C)(c2noc(C3CC3)n2)CC1 [Example 152, 4-(5-cyclopropyl-1,2,4-oxadiazol-3-yl)-N-{2-fluoro-6-[(1R,4R)-5-(propan-2-yl)-2,5-diazabicyclo[2.2.1]heptan-2-yl]phenyl}-4-methylpiperidine-1-carboxamide]",136
12,"CC(C)N1CCN(c2cccc(Cl)c2NC(=O)N2CCC(C)(c3noc(C4(F)CC4)n3)CC2)CC1 [Example 109, N-{2-chloro-6-[4-(propan-2-yl)piperazin-1-yl]phenyl}-4-[5-(1-fluorocyclopropyl)-1,2,4-oxadiazol-3-yl]-4-methylpiperidine-1-carboxamide]",161
13,"Cc1noc(C2(F)CCN(C(=O)Nc3ccccc3N3CCN(C(C)C)CC3)CC2)n1 [Example 164, 4-fluoro-4-(3-methl-1,2,4-oxadiazol-5-yl)-N-{2-[4-(propan-2-yl)piperazin-1-yl]phenyl}piperidine-1-carboxamide]",128
14,"CC(C)N1CCN(c2cccc(F)c2NC(=O)N2CCC(C)(c3noc(C4CC(F)(F)C4)n3)CC2)CC1 [Example 75, 4-[5-(3,3-difluorocyclobutyl)-1,2,4-oxadiazol-3-yl]-N-{2-fluoro-6-[4-(propan-2-yl)piperazin-1-yl]phenyl}-4-methylpiperidine-1-carboxamide]",131
15,"CC(C)N1CCN(c2cccc(Cl)c2NC(=O)N2CCC(C)(c3noc(C4CC4(C)C)n3)CC2)CC1 (centres unmarked) [Example 106, N-{2-chloro-6-[4-(propan-2-yl)piperazin-1-yl]phenyl}-4-[5-(2,2-dimethylcyclopropyl)-1,2,4-oxadiazol-3-yl]-4-methylpiperidine-1-carboxamide]",185
16,"CC(C)N1CCN(c2cccc(Cl)c2NC(=O)N2CCC(C)(c3noc([C@@H]4C[C@@H]4C)n3)CC2)CC1 (racemic) [Example 104, Rac-N-{2-chloro-6-[4-(propan-2-yl)piperazin-1-yl]phenyl}-4-methyl-4-{5-[(1R,2S)-2-methylcyclopropyl]-1,2,4-oxadiazol-3-yl}piperidine-1-carboxamide]",180
17,"CC(C)N1CC=C(c2cccc(Cl)c2NC(=O)N2CCC(C)(c3noc(C4CC4)n3)CC2)CC1 [Example 130, N-{2-chloro-6-[1-(propan-2-yl)-1,2,3,6-tetrahydropyridin-4-yl]phenyl}-4-(5-cyclopropyl-1,2,4-oxadiazol-3-yl)-4-methylpiperidine-1-carboxamide]",142
18,"CC(C)N1CCN(c2cccc(Cl)c2NC(=O)N2CCc3ccccc3CC2)CC1 [Example 97, N-{2-chloro-6-[4-(propan-2-yl)piperazin-1-yl]phenyl}-1,2,4,5-tetrahydro-3H-3-benzazepine-3-carboxamide]",69
19,"CC(C)N1CCC(c2cccc(F)c2NC(=O)N2CCC(C)(c3nc4ccccc4o3)CC2)CC1 [Example 49, 4-(1,3-benzoxazol-2-yl)-N-{2-fluoro-6-[1-(propan-2-yl)piperidin-4-yl]phenyl}-4-methylpiperidine-1-carboxamide]",196
20,"Cc1ccc(C2CCN(C(=O)Nc3c(F)cccc3N3CCN(C(C)C)CC3)CC2)nc1 [Example 46, N-{2-fluoro-6-[4-(propan-2-yl)piperazin-1-yl]phenyl}-4-(5-methylpyridin-2-yl)piperidine-1-carboxamide]",49
21,"CC(C)N1CCN(c2cccc(Cl)c2NC(=O)N2CCC(C)(c3ncc(C4CC4)s3)CC2)CC1 [Example 101, N-{2-chloro-6-[4-(propan-2-yl)piperazin-1-yl]phenyl}-4-(5-cyclopropyl-1,3-thiazol-2-yl)-4-methylpiperidine-1-carboxamide]",157
22,"CC(C)N1CCC(Oc2cccc(Cl)c2NC(=O)N2CCC(C)(c3noc(C4CC4)n3)CC2)C1 (racemic) [Example 110, Rac-N-(2-chloro-6-{[1-(propan-2-yl)pyrrolidin-3-yl]oxy}phenyl)-4-(5-cyclopropyl-1,2,4-oxadiazol-3-yl)-4-methylpiperidine-1-carboxamide]",148
23,"CC(C)c1nc(C2(C)CCN(C(=O)Nc3c(F)cccc3N3CCN(C(C)C)CC3)CC2)no1 [Example 20, N-{2-fluoro-6-[4-(propan-2-yl)piperazin-1-yl]phenyl}-4-methyl-4-[5-(propan-2-yl)-1,2,4-oxadiazol-3-yl]piperidine-1-carboxamide]",111
24,"CC(C)N1CCN(c2cccc(Cl)c2NC(=O)N2CCC(C)(c3noc(C4CC4)c3Cl)CC2)CC1 [Example 103, 4-(4-chloro-5-cyclopropyl-1,2-oxazol-3-yl)-N-{2-chloro-6-[4-(propan-2-yl)piperazin-1-yl]phenyl}-4-methylpiperidine-1-carboxamide]",178
25,"CC(C)N1CCN(c2ccccc2NC(=O)N2CCC(C#N)(c3ccccc3)CC2)CC1.Cl [Example 6, 4-cyano-4-phenyl-N-{2-[4-(propan-2-yl)piperazin-1-yl]phenyl}piperidine-1-carboxamide]",151
26,"CC(C)N1CCN(c2ccccc2NC(=O)N2CCC(C)(c3ccccc3)CC2)CC1 [Example 5, 4-methyl-4-phenyl-N-{2-[4-(propan-2-yl)piperazin-1-yl]phenyl}piperidine-1-carboxamide]",156
27,"CC(C)N1C2CCC1CN(c1cccc(F)c1NC(=O)N1CCC(C)(c3noc(C4CC4)n3)CC1)C2 [Example 155, 4-(5-cyclopropyl-1,2,4-oxadiazol-3-yl)-N-{2-fluoro-6-[8-(propan-2-yl)-3,8-diazabicyclo[3.2.1]octan-3-yl]phenyl}-4-methylpiperidine-1-carboxamide]",55
28,"CC1(c2noc(C3CC3)n2)CCN(C(=O)Nc2c(Cl)cccc2N2CCN(C(C)(C)C)CC2)CC1 [Example 100, N-[2-(4-tert-butylpiperazin-1-yl)-6-chlorophenyl]-4-(5-cyclopropyl-1,2,4-oxadiazol-3-yl)-4-methylpiperidine-1-carboxamide]",160
29,"CC(C)N1CC(Oc2cccc(Cl)c2NC(=O)N2CCC(C)(c3noc(C4CC4)n3)CC2)C1 [Example 160, N-(2-chloro-6-{[1-(propan-2-yl)azetidin-3-yl]oxy}phenyl)-4-(5-cyclopropyl-1,2,4-oxadiazol-3-yl)-4-methylpiperidine-1-carboxamide]",141
